In publication PMC8037310, “Thrombin-Derived Peptides Potentiate the Activity of Gram-Positive-Specific Antibiotics against Gram-Negative Bacteria” (Molecules, 2021):
Converted amounts (≈) assume the structure as drawn. Peptide text beside a SMILES is read from it.

Experiments:
E. coli BW25113 [1] = test: microbe, parasite or virus in culture; format: cell-based, Escherichia coli; details: for MSCnovo: novobiocin concentration in the combination giving the lowest FICi; for MSCnovo / MSCpeptide: E. coli BW25113; for MICpeptide: synergist alone, E. coli BW25113, from checkerboard with novobiocin; for MSCpeptide: synergist concentration in the combination with novobiocin giving the lowest FICi
Method: (§1) All peptides were screened for antimicrobial activity against E. coli BW25113, E. coli ATCC25922, and E. coli W3110. A select group of the peptides was further tested against E. coli mcr-1, E. coli EQASmcr-1 (EQAS 2016 412016126), E. coli EQASmcr-2 (EQAS 2016 KP37), E. coli EQASmcr-3 (EQAS 2017 2013-SQ352), K. pneumoniae ATCC13883, P. aeruginosa ATCC27853, and A. baumannii ATCC17978. The antimicrobial assay was performed according to CLSI guidelines. Bacteria were plated out directly from their glycerol stocks on blood agar plates, incubated overnight at 37 °C, and then kept in the fridge. The blood agar plates were only used for 2 weeks and then replaced.
(§2) One colony from a blood agar plates was inoculated in Lysogeny Broth (LB) at 37 °C until a 0.5 optical density at 600 nm (OD600) was reached (compared to the sterility control of LB). The bacterial suspension was diluted in fresh LB to 2.0 × 10^6 CFU/mL. The serial dilutions were prepared in polypropylene microtiter plates: a stock of the test compounds was prepared with a 2x final concentration in LB. Moreover, 100 µL of the stock was added to the wells of the top row of which 50 µL was used for the serial dilution. The bottom row of each plate was used as the positive (50 µL of LB) and negative controls (100 µL of LB) (6 wells each). Furthermore, 50 µL of the 2.0 × 10^6 CFU/mL bacterial stock was added to each well except for the negative controls, adding up to a total volume of 100 µL per well. The plates were sealed with a breathable seal and incubated for 20 h at 37 °C and 600 rpm.
(§3) Two 96-well plates were required per compound. A serial dilution of the compound was performed on two plates from row A–G using with LB as medium. Row H was filled with 25 µL medium. On a separate plate a negative control (8 wells, 100 μL medium) was prepared. For all concentrations of antibiotic a specific stock was prepared. 25 µL medium was added to the 0 µg/mL antibiotic columns (plate I, column 1–3). Of each antibiotic stock 25 µL was added to three columns to obtain triplicates for every condition. Both plates contained 50 µL in each well to which 50 µL bacterial stock was added (see the protocol of the MIC assays) and the plates were sealed. After incubation for 20 h at 37 °C while shaking, the breathable seals were removed and the density of the bacterial suspensions measured at 600 nm (OD600) using a Tecan Spark plate reader. The OD600 values were transformed to a 2D gradient with the negative control as minimum and the positive control (wells G1, G2, and G3) as maximum in excel. The FICi was calculated using Equation (1) with a FICi ≤ 0.5 indicating synergy. FICi = (MSCa/MICa) + (MSCb/MICb),(1)
(§4) Calculation of the FICi: MSCa = concentration of the […] in combination with the antibiotic that results in the lowest FICi. MICa = MIC of the antibiotic without synergist (row G). MSCb = concentration of the synergist in combination with the antibiotic that results in the lowest FICi. MICb = MIC of the synergist itself (Column 1–3, plate I).

A. baumannii ATCC17978 = test: microbe, parasite or virus in culture; format: cell-based, Acinetobacter baumannii; details: for MICpeptide: peptide alone; for MICpeptide / MSCpeptide / MSCrif: A. baumannii ATCC17978; for MSCpeptide: peptide concentration in the combination with rifampicin giving the lowest FICi; for MSCrif: rifampicin concentration in the combination giving the lowest FICi
Method: as §1, §2, §3, §4

E. coli ATCC25922 = format: cell-based, Escherichia coli; details: for FICi: ATCC25922, 20 h; for MICpeptide: peptide alone; for MICpeptide / MSCpeptide / MSCrif: E. coli ATCC25922; for MSCpeptide: peptide concentration in the combination with rifampicin giving the lowest FICi; for MSCrif: rifampicin concentration in the combination giving the lowest FICi
Outline: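 Checkerboard of peptide serial dilutions against rifampicin concentrations in triplicate, in LB with 1.0 × 10^6 CFU/mL final inoculum after mixing the 2.0 × 10^6 CFU/mL stock 1:1, 20 h at 37 °C shaking. OD600 read; FICi = MSCa/MICa + MSCb/MICb, ≤0.5 taken as synergy.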

P. aeruginosa ATCC27853 = test: Checkerboard assay with rifampicin; format: cell-based, Pseudomonas aeruginosa; details: for MICpeptide: peptide alone; for MICpeptide / MSCpeptide / MSCrif: P. aeruginosa ATCC27853; for MSCpeptide: peptide concentration in the combination with rifampicin giving the lowest FICi; for MSCrif: rifampicin concentration in the combination giving the lowest FICi; for FICi: with rifampicin vs P. aeruginosa ATCC27853, synergy defined as FICi ≤ 0.5
Method: as §1, §2, §3, §4

E. coli BW25113 [2] = test: LPS competition assay; format: cell-based, Escherichia coli; details: E. coli BW25113, LB, 20 h 37 °C, visual read-out
Method: as §2
The same protocol as the MIC assay was used to prepare the serial dilution of the compounds in 96-wells plates in duplicate resulting in two identical plates. A serial dilution of colistin was taken along as a control. The inoculation and preparation of the bacteria stock was performed as described for the MIC assay. The stock of bacteria was then split into two stocks. […] The normal bacteria stock was added to the remaining plate as described in the MIC assay.

[3] = with rifampicin vs A. baumannii ATCC17978

Row | Compound | FICi (E. coli BW25113 [1]; BW25113, 20 h) | MSCnovo (E. coli BW25113 [1]) [µg/mL] | MICpeptide (E. coli BW25113 [1]) [µg/mL] | MSCpeptide (E. coli BW25113 [1]) [µg/mL] | FICi (A. baumannii ATCC17978; ATCC17978, 20 h) | MICpeptide (A. baumannii ATCC17978) [µg/mL] | MSCpeptide (A. baumannii ATCC17978) [µg/mL] | MSCrif (A. baumannii ATCC17978) [µg/mL] | FICi (E. coli ATCC25922) | MICpeptide (E. coli ATCC25922) [µg/mL] | MSCpeptide (E. coli ATCC25922) [µg/mL] | MSCrif (E. coli ATCC25922) [µg/mL] | MICpeptide (P. aeruginosa ATCC27853) [µg/mL] | MSCpeptide (P. aeruginosa ATCC27853) [µg/mL] | MSCrif (P. aeruginosa ATCC27853) [µg/mL] | MIC + 1.0 mg/ml LPS (E. coli BW25113 [2]; in the presence of 1 mg/mL LPS) [µg/mL] | MIC (E. coli BW25113 [2]; without LPS) [µg/mL] | FICi (A. baumannii ATCC17978; [3]) | FICi (P. aeruginosa ATCC27853) | FICi (E. coli BW25113 [1]; with novobiocin vs E. coli BW25113)
1 | CC[C@H](C)[C@H](NC(=O)[C@H](Cc1c[nH]c2ccccc12)NC(=O)[C@H](CCCCN)NC(=O)[C@H](CCCCN)NC(=O)[C@H](CC(C)C)NC(=O)[C@H](CCCNC(=N)N)NC(=O)[C@H](Cc1ccccc1)NC(=O)[C@@H](N)C(C)C)C(=O)N[C@@H](CCC(N)=O)C(=O)N[C@@H](CCCCN)C(=O)N[C@H](C(=O)N[C@@H](C)C(N)=O)C(C)C [peptide 19] (H-VFRLKKWIQKVA-NH2) | 0.0390 | 3.125 | 200 | 6.25 | 0.0938 | 100 | 6.25 | 0.063 | 0.0313 | > 200 | 6.25 | 0.063 | 100 | 25 | 0.25 |  |  |  |  | 
2 | CC[C@H](C)[C@H](NC(=O)[C@@H](NC(=O)[C@H](CCCCN)NC(=O)[C@H](CCC(N)=O)NC(=O)[C@@H](NC(=O)[C@H](C)NC(=O)[C@H](CCCCN)NC(=O)[C@H](CCCCN)NC(=O)[C@H](CC(C)C)NC(=O)[C@H](CCCNC(=N)N)NC(=O)[C@H](Cc1ccccc1)NC(=O)[C@@H](N)C(C)C)[C@@H](C)CC)C(C)C)C(N)=O [peptide 14] (H-VFRLKKAIQKVI-NH2) | 0.0313 | 6.25 | > 200 | 6.25 | 0.0781 | > 200 | 6.25 | 0.125 | 0.0313 | > 200 | 6.25 | 0.063 | > 200 | 50 | 0.5 |  |  |  |  | 
3 | CC[C@H](C)[C@H](NC(=O)[C@@H](NC(=O)[C@H](CCCCN)NC(=O)[C@H](CCC(N)=O)NC(=O)[C@@H](NC(=O)[C@H](Cc1c[nH]c2ccccc12)NC(=O)[C@H](CCCCN)NC(=O)[C@H](CCCCN)NC(=O)[C@H](CC(C)C)NC(=O)[C@H](CCCNC(=N)N)NC(=O)[C@H](Cc1ccccc1)NC(=O)[C@@H](N)C(C)C)[C@@H](C)CC)C(C)C)C(N)=O [peptide 6] (H-VFRLKKWIQKVI-NH2) | 0.1875 | 25 | 12.5 | 1.563 |  | 50 | 3.125 | 0.125 | 0.0469 | 200 | 6.25 | 0.063 | 50 | 25 | 1 | 200 | 12.5 (≈ 8.03 µM) | 0.1250 | > 0.5 | 
4 | CC[C@H](C)[C@H](NC(=O)[C@@H](NC(=O)[C@H](CCCCN)NC(=O)[C@H](CCC(N)=O)NC(=O)[C@@H](NC(=O)[C@H](Cc1c[nH]c2ccccc12)NC(=O)[C@H](CCCCN)NC(=O)[C@H](CCCCN)NC(=O)[C@H](CC(C)C)NC(=O)[C@H](C)NC(=O)[C@H](Cc1ccccc1)NC(=O)[C@@H](N)C(C)C)[C@@H](C)CC)C(C)C)C(N)=O [peptide 10] (H-VFALKKWIQKVI-NH2) |  | 6.25 | 100 | 6.25 |  | 50 | 3.125 | 0.125 | 0.0313 | > 200 | 6.25 | 0.063 | > 200 | 100 | 4 |  |  | 0.1250 | 0.2500 | 0.0781
